{"source": "paper PMC2713499", "about": "(Biochemistry, 2009)", "test_system": "PC-3-Bcl-2 prostate cancer cells", "experiment": "In vitro cytotoxicity assay", "format": "cell-based, Human", "details": "for cytotoxic effects: up to 100,000 nM, PC-3-Bcl-2, in words; for cytotoxic effects / inhibition of proliferation and viability compared to control: 96 h; for inhibition of proliferation and viability compared to control / % surviving fraction compared to mock: MTT, PC-3-Bcl-2; for % surviving fraction compared to mock: 96 hours"}
{"compound": "CC(=O)Nc1nnc(S(N)(=O)=O)s1", "note": "[AZM, N-(5-(aminosulfonyl)-1,3,4-thiadiazol-2-yl)-acetamide]", "values": [{"measurement": "cytotoxic effects", "result": "no cytotoxic effects"}]}
{"compound": "NS(=O)(=O)c1nnc(NS(=O)(=O)c2ccccc2)s1", "note": "[BZM, 1,3,4-Thiadiazole-2-sulfonamide, 5-((phenylsulfonyl)amino)]", "values": [{"measurement": "cytotoxic effects", "result": "no cytotoxic effects"}]}
{"compound": "NS(=O)(=O)c1nnc(-c2ccccc2Cl)s1", "note": "[CHL, 5-[o-chlorophenyl]-1,3,4-thiadiazole-2-sulfonamide]", "values": [{"measurement": "inhibition of proliferation and viability compared to control", "setting": "0.1 mM", "result": 57, "unit": "%"}, {"measurement": "% surviving fraction compared to mock", "setting": "0.1 mM", "result": 43, "unit": "%"}]}
{"compound": "CCOc1ccc2nc(S(N)(=O)=O)sc2c1", "note": "[EZM, 6-ethoxybenzothiazole-2-sulfonamide]", "values": [{"measurement": "cytotoxic effects", "result": "no cytotoxic effects"}]}
{"compound": "CC(=O)/N=c1/sc(S(N)(=O)=O)nn1C", "note": "[MZM, N-(3-methyl-5-sulfamoyl-3H-1,3,4-thiadiazol-2-ylidene)]", "values": [{"measurement": "inhibition of proliferation and viability compared to control", "setting": "0.01 mM", "result": 29, "unit": "%"}, {"measurement": "inhibition of proliferation and viability compared to control", "setting": "0.1 mM", "result": 32, "unit": "%"}, {"measurement": "% surviving fraction compared to mock", "setting": "0.1 mM", "result": 68, "unit": "%"}]}
